The target of series [1] is T1, IL-17A/A (Homo sapiens, UniProt Q16552).
T1 sequence (Q16552 24-155): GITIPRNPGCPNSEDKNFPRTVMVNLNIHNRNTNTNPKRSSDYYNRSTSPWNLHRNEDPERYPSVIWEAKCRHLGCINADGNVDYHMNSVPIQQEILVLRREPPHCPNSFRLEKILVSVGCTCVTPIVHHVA
Kind of series: IL-17A/A HEK-Blue Cell Assay. The format is cell-based. Particulars: HEK-Blue IL-17 reporter cells, IL-17A/A stimulation, 20 hours, SEAP readout; read-out: IL17 AA HEK-5 pIC50 (converted). The gist of the method: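 Cells co-expressing IL-17RA, IL-17RC and Act1 received titrated compound, top final 10 uM in 0.1% DMSO, immediately before IL-17A/A stimulation.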

Series [2] deals with T2, IL-17A/F (Homo sapiens, UniProt Q16552+Q96PD4).
T2 sequence (Q16552 24-155): T1 sequence (Q16552 24-155)
T2 sequence (Q96PD4 31-163): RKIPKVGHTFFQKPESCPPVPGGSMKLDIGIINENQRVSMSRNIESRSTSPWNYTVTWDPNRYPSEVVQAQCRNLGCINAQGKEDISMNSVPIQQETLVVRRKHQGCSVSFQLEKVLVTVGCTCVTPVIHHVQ
Kind of series: IL-17A/F HEK-Blue Cell Assay. In kind it is cell-based. The settings on record: HEK-Blue IL-17 reporter cells, IL-17A/F stimulation, 20 hours, SEAP readout; read-out: IL17AF HEK Blue pIC50 (converted).

A short description of series [3]: Microsomal stability, human liver microsomes. In kind it is in vitro ADME. Particulars: human liver microsomes 0.5 mg protein/mL, 1 μM test compound, NADPH, 37° C., 60 min; read-out: HLM Clint. The method, then:
(§1) Test compound and control working solution preparation. 5 μL of a compound and control stock solution (10 mM in dimethyl sulfoxide (DMSO)) were diluted with 495 μL of acetonitrile (ACN).
(§2) NADPH cofactor preparation. The appropriate amount of NADPH powder was weighed and diluted into a 10 mM MgCl2 solution (working solution concentration: 10 mM; final concentration in reaction system: 1 mM). Materials: NADPH powder: β-Nicotinamide adenine dinucleotide phosphate reduced form, tetrasodium salt; NADPHA4Na (Vendor: Chem-Impex International, Cat. No. 00616).
(§3) Liver Microsome Preparation. The appropriate concentrations of microsome working solutions were prepared in 100 mM potassium phosphate buffer. Materials: Human Liver Microsomes (HLM) Cat No. 452117 and Lot No. 38295 (Corning); SD Rat Liver Microsomes (RLM) Cat No. R1000 and Lot No. 1910100 (Xenotech).
(§4) Stop solution preparation. Cold (4° C.) acetonitrile (ACN) containing 200 ng/mL tolbutamide and 200 ng/mL labetalol as internal standards (IS) were used as the stop solution.
(§5) Assay Procedure. Empty incubation plates (T60 and NCF60) were warmed for 10 mins prior to use. Liver microsomes were diluted to 0.56 mg/mL in 100 mM phosphate buffer. 445 uL microsome working solutions (0.56 mg/mL) were transferred into pre-warmed ‘Incubation’ plates T60 and NCF60, Then ‘Incubation’ plates T60 and NCF60 were pre-incubated for 10 min at 37° C. with constant shaking. 54 μL liver microsomes were transferred to the blank plate, then 6 μL NAPDH cofactor were added to the blank plate, followed by the addition 180 μL quenching solution to the blank plate. 5 μL compound working solution (100 μM) were added into ‘incubation’ plates (T60 and NCF60) containing microsomes and mixed thoroughly 3 times. To the NCF60 plate 50 μL of buffer were added and mixed 3 times thoroughly. Start timing; plate was incubated at 37° C. for 60 min while shaking. In ‘Quenching’ plate TO, were added 180 μL quenching solution and 6 μL NAPDH cofactor. Plate is chilled to prevent evaporation. The T60 plate, was mixed 3 times thoroughly, and immediately 54 μL of the mixture was removed for the 0-min time point to ‘Quenching’ plate. Then 44 μL NAPDH cofactor was added to the incubation plate (T60). Start timing; plate was incubated at 37° C. for 60 min while shaking. Final concentrations of each component in the incubation media: Microsome (0.5 mg protein/mL); Test compound (1 μM); control compound ([…]); ACN (0.99%); and DMSO (0.01%). At 5, 15, 30, 45, and 60 min, 180 μL quenching solution was added to ‘Quenching’ plates, mixed once, and serially transferred 60 μL of sample from T60 plate per time point to ‘Quenching’ plates. For the NCF60 plate, mix once and 60 μL of sample was transferred from the NCF60 incubation to ‘Quenching’ plate containing quenching solution at the 60-min time point (Start time 1:00:00 and End Time 0:00:00).
(§6) All sampling plates were shaken for 10 min, then centrifuged at 4000 rpm for 20 minutes at 4° C. 80 μL of supernatant were transferred into 240 μL HPLC water, and mixed by plate shaker for 10 min. Each bioanalysis plate was sealed and shaken for 10 minutes prior to LC-MS/MS analysis.
Background: Liver microsomes are vesicles of endoplasmic reticulum, rich in cytochrome P450 enzymes.

Series [4] can be described thus: Microsomal stability, rat liver microsomes. In kind it is in vitro ADME. The settings on record: SD rat liver microsomes 0.5 mg protein/mL, 1 μM test compound, NADPH, 37° C., 60 min; read-out: RLM Clint. The method, then:
as §1, §2, §3, §4, §5, §6

The nature of series [5]: Rat pharmacokinetics, PO. The format is in vivo. The settings on record: male rat, PO 5 mg/kg oral gavage, plasma, Linear/log trapezoidal; read-out: Rat PO AUC0-t. On the procedure:
Formulations for PO. An appropriate amount of the test article is weighed and mixed with the appropriate volume of vehicle to get a clear solution or a uniform suspension, vortexing or sonication in water bath may used. Animals are dosed within four hours after the formulation is prepared.
Formulation samples are removed from each of the formulation solutions or suspensions, transferred into 1.5 mL of polypropylene microcentrifuge tubes and run dose validated by LC/UV or LC-MS/MS.
Dose administration. For PO dosing, the dose formulation is administered via oral gavage.
Blood Collection. Each blood collection (about 0.2 mL per time point) is performed from carotid artery cannula (CAC) of each animal into a pre-chilled commercial EDTA-K2 tubes as anti-coagulant, then placed on wet ice until centrifugation. Blood samples are processed for plasma by centrifugation at approximately 4° C., 3,200 g for 10 min. Plasma is collected respectively and a certain amount of plasma from rat is transferred into pre-labeled 96 well plate or polypropylene tubes, quick frozen over dry ice and kept at −60° C. or lower until LC-MS/MS analysis. After terminal collection, all plasmas are stored at approximately −80° C. freezer until final analysis.
Plasma concentration versus time data are plotted in graph and analyzed by non-compartmental approaches using the Phoenix WinNonlin 6.3 software program. Trapezoids: Before TMax (Linear); After Tmax (Log). Partial Area Interpolations: Before TMax (Linear); After Tmax (Log).

Take `CCC(=O)N[C@@H](C(=O)N1C[C@@H](C)N(C)C[C@H]1C)[C@@H](C)c1ccc(NC(=O)[C@@H](NC(=O)c2ccnn2CC)C(C2CC2)C2CC2)c(F)c1` [Compound 212]: the IC50 in series [1] is below 10 nM; in series [2], 10 to 100 nM. Further, the microsomal CLint at 1 μM was below 50 µL/min/mg in series [3] and 9.6 to 20 µL/min/mg in series [4]. Further, the AUC(0-t) in series [5] was in the range of 500 to 1000 ng·h/mL.

With `CCn1nccc1C(=O)N[C@H](C(=O)Nc1ccc([C@H](C)[C@@H](NC(=O)COC)C(=O)N2CCN(C)[C@H](C)C2)cc1F)C(C1CC1)C1CC1` [Compound 207], the IC50 was below 10 nM in series [1] and 10 to 100 nM in series [2]. For the same compound, the values for the microsomal CLint at 1 μM in series [3] and in series [4] were 50 to 150 µL/min/mg and below 9.6 µL/min/mg, respectively. Also, the AUC(0-t) in series [5] is above 1000 ng·h/mL.

On to `CCn1nccc1C(=O)N[C@H](C(=O)Nc1ccc([C@H](C)[C@@H](NC(=O)COC)C(=O)N2CCN(C)CC2)cc1F)C(C1CC1)C1CC1` [Compound 215], for which the IC50 in series [1] and in series [2] was 10 to 100 nM in each case. The values for the microsomal CLint at 1 μM in series [3] and in series [4] were 50 to 150 µL/min/mg and below 9.6 µL/min/mg, respectively. Further, in series [5], the AUC(0-t) was above 1000 ng·h/mL.

For `CCC(=O)N[C@@H](C(=O)N1CCN(C)[C@H](C)C1)[C@@H](C)c1ccc(NC(=O)[C@@H](NC(=O)C2(F)CC2)C(C2CC2)C2CC2)c(F)c1` [Compound 245], the IC50 in series [1] is 10 to 100 nM; in series [2] it was 100 to 10000 nM. In addition, the microsomal CLint at 1 μM in series [3] is below 50 µL/min/mg; in series [4], below 9.6 µL/min/mg. Further, in series [5], the AUC(0-t) was above 1000 ng·h/mL.

`CCn1nccc1C(=O)N[C@H](C(=O)Nc1ccc([C@H](C)[C@@H](NC(=O)COC)C(=O)N2CCN(C)C(CF)C2)cc1F)C(C1CC1)C1CC1` (single isomer, unassigned) [Compound 298]: the IC50 was below 10 nM in series [1] and 10 to 100 nM in series [2]. The results for the microsomal CLint at 1 μM in series [3] and in series [4] were below 50 µL/min/mg and below 9.6 µL/min/mg, respectively. Also, in series [5], the AUC(0-t) is above 1000 ng·h/mL.

Consider `CCC(=O)N[C@@H](C(=O)N1CCN(C)[C@@H](C)C1)[C@@H](C)c1ccc(NC(=O)[C@@H](NC(=O)c2ccnn2CC)C(C2CC2)C2CC2)c(F)c1` [Compound 213], for which the IC50 in series [1] was below 10 nM; in series [2], 10 to 100 nM. Also, the microsomal CLint at 1 μM was 50 to 150 µL/min/mg in series [3] and below 9.6 µL/min/mg in series [4]. Also, the AUC(0-t) in series [5] fell in the range of 500 to 1000 ng·h/mL.

Regarding `CCC(=O)N[C@@H](C(=O)N1CCN(C)[C@H](C)C1)[C@@H](C)c1ccc(NC(=O)[C@@H](NC(=O)c2ccnn2CC)C(C2CC2)C2CC2)c(F)c1` [Compound 209], the IC50 in series [1] was below 10 nM; in series [2] it was 10 to 100 nM. In addition, the figures for the microsomal CLint at 1 μM in series [3] and in series [4] were 50 to 150 µL/min/mg and below 9.6 µL/min/mg, respectively. For the same compound, the AUC(0-t) in series [5] fell in the range of 500 to 1000 ng·h/mL.

The record behind these values is patent publication US20250177383A1, “DI-CYCLOPROPYL BASED IL-17A MODULATORS AND USES THEREOF” (DICE ALPHA, INC., priority 2022, published 2025).
